From patent US20190247353A1, “ACNE STRAIN-SELECTIVE ANTIBACTERIAL AGENT” (MOMOTANI JUNTENKAN CO., LTD., priority 2016, published 2019)
In brackets after ≈: the same amount, converted by molar mass. Like-named read-outs stand apart in the source and are kept apart here.

How the values were obtained:
Type in all cases: cell-based, Propionibacterium acnes
[1] = system: HL053PA1 strain (RT4) and HL043PA1 strain (RT5) versus HL110PA3 strain (RT6); assay: Strain-selective antibacterial activity (average of MICRT6/MICRT4 and MICRT6/MICRT5); settings: for Strain-selective antibacterial activity over the tested pH range, in words: tested pH range pH 5 to 7
From the text: (§1) Herein, “acne strain-selective antibacterial activity” or “strain-selective antibacterial activity” means an index indicating better inhibition of growth of a dominant strain in acne patients compared to that of a dominant strain in healthy subjects. It is expressed by the average value of the values (MICRT6/MICRT4, and MICRT6/MICRTS) obtained by dividing the minimum inhibitory concentration (MIC) of an object substance with respect to the dominant strain in healthy subjects (RT6 strain) (MICRT6) respectively by the MIC of the object substance with respect to the dominant strain in acne patients (RT4 strain) (MICRT4), and by the MIC of the object substance with respect to the dominant strain in acne patients (RT5 strain) (MICRT5).
(§2) The strain-selective antibacterial activity of each test substance (Table 2, right-most column) was evaluated based on the following rating criteria (Table 3). When the strain-selective antibacterial activity is indicated by a numerical range, the rating was based on the minimum value thereof.

[2] = system: HL045PA1 strain (RT4); assay: MIC by broth microdilution method, HL045PA1 strain; settings: Cutibacterium acnes, PA1; Example 6, method as Example 1; read-out: MIC against acne bacterium strain HL045 PA1 strain (RT4)
Protocol: (§3) The antibacterial activity of a test substance was determined based on the minimum inhibitory concentration (MIC). An MIC was measured according to the broth microdilution method which is the standard method of Japanese Society of Chemotherapy.
(§4) Each of strain suspensions (5.0×10^4 cfu/mL) was aliquoted in a 96-well round bottom microplate, each of the test substance (fatty acid concentration 10,000 μg/mL) was added at a 1/10 volume to the aliquot and mixed to prepare measurement samples (fatty acid concentration: 1,000 μg/mL). Measurement samples in 2-fold dilution series were prepared using the strain suspension (fatty acid concentration from 0.48 to 1,000 μg/mL). Using a sample containing only the solvent (DMSO) as a control, it was confirmed that the influence of the solvent on the growth of each strain could be neglected.
(§5) The measurement samples were incubated under an anaerobic condition at 37° C. for 2 days. The presence or absence of a precipitation of test microbial cells after the incubation was examined and the minimum concentration at which the precipitation of microbial cells […] was regarded as the MIC (μg/mL) of the test substance against the acne bacterium strain.
(§6) The MIC of each of the following test substances was measured substantially in the same manner as in Example 1 (Table 12) except that a suspension of test bacterium strains was prepared using the dominant strain in acne patients (HL005PA1 strain (HM-492^†, RT4 strain), […] (HM-524^†, RT4 strain), HL045PA1 strain (HM-516^†, RT4 strain), or HL043PA2 strain (HM-514^†, RT5 strain)), or the dominant strain in healthy subjects (HL110PA4 strain (HM-555^†, RT6 strain) instead of the dominant strains in acne patients (HL053PA1 strain (RT4 strain) and HL043PA1 strain (RT5 strain)) and the dominant strain in healthy subjects (HL110PA3 strain (RT6 strain) used in Examples 1 to 3.

[3] = system: HL056PA1 strain (RT4); assay: MIC by broth microdilution method, HL056PA1 strain; settings: Cutibacterium acnes, PA1; Example 6, method as Example 1; read-out: MIC against acne bacterium strain HL056 PA1 strain (RT4)
Protocol: as §3, §4, §5, §6

[4] = system: HL043PA2 strain (RT5); assay: MIC by broth microdilution method, HL043PA2 strain; settings: Cutibacterium acnes; Example 6, method as Example 1; read-out: MIC against acne bacterium strain HL043 PA2 strain (RT5)
Protocol: as §3, §4, §5, §6

[5] = system: HL005PA1 strain (RT4); assay: MIC by broth microdilution method, HL005PA1 strain; settings: Cutibacterium acnes, PA1; Example 6, method as Example 1; read-out: MIC against acne bacterium strain HL005 PA1 strain (RT4)
Protocol: as §3, §4, §5, §6

[6] = system: HL053PA1 strain (RT4); assay: MIC by broth microdilution method, HL053PA1 strain; settings: for MIC: Cutibacterium acnes, read-out: MIC against acne bacterium strain HL053PA1 strain (RT4)
Protocol: (§7) An MIC is measured herein according to the broth microdilution method which is the standard method of Japanese Society of Chemotherapy.
as §3
(§8) One-loopful of each acne bacterium strain listed in Table 1 was scraped off and inoculated into 5 mL of a GAM broth slant agar medium (pH 7.0, Nissui Pharmaceutical Co., Ltd.).
(§9) The inoculated acne bacterium strain was precultured at 37° C. in a nitrogen atmosphere (anaerobic condition) for 48 hours. The precultured microbial cells were diluted in a modified GAM broth liquid medium (pH 6.0) to a concentration of 5.0×10^4 cfu/mL (viable cell count per OD660=1 is 2.0×10^9 cfu/mL), to prepare strain suspensions.
(§10) Each fatty acid (Tokyo Chemical Industry Co., Ltd.) listed in Table 2 was dissolved in dimethylsulfoxide (DMSO) as a solvent such that the concentration became 10,000 μg/mL, and used as a test substance.
as §4, with “μg/mL).” for “μg/mL). Using a sample containing only the solvent (DMSO) as a control, it was confirmed that the influence of the solvent on the growth of each strain could be neglected.”
(§11) […] The presence or absence of a precipitation of test microbial cells after the incubation was examined and the minimum concentration at which the precipitation of microbial cells […] was regarded as the MIC (μg/mL) of the test substance against the acne bacterium strain.

[7] = system: HL005PA1, HL056PA1, HL045PA1 (RT4) and HL043PA2 (RT5) strains versus HL110PA4 strain (RT6); assay: Strain-selective antibacterial activity against different acne bacterium strains (Example 6); settings: Example 6 strains
From the text: as §1, §2, §6

[8] = system: HL110PA3 strain (RT6); assay: MIC by broth microdilution method, HL110PA3 strain; settings: Cutibacterium acnes, read-out: MIC against acne bacterium strain HL110PA3 strain (RT6)
Protocol: as §7, §3, §8, §9, §10
as §4, with “μg/mL).” for “μg/mL). Using a sample containing only the solvent (DMSO) as a control, it was confirmed that the influence of the solvent on the growth of each strain could be neglected.”
as §11

[9] = 48 h, pH 6.0 modified GAM broth, anaerobic, 37° C., 2 days (Example 1)
[10] = 72 h, pH 5.0, estimated from the growth on day 3
[11] = pH 5.0, estimated from the growth on day 3
[12] = 72 h, pH 5.5, estimated from the growth on day 3
[13] = 96 h, pH 5.0, estimated from the growth on day 4

Row | Compound | Strain-selective antibacterial activity ([1]; pH 5.5) | Strain-selective antibacterial activity at each pH ([1]; pH 5.5 (summary Table 10)) | Strain-selective antibacterial activity ([1]; pH 6.0 (Example 1)) | Strain-selective antibacterial activity at each pH ([1]; pH 6 (summary Table 10)) | Strain-selective antibacterial activity ([1]; pH 6.5) | Strain-selective antibacterial activity at each pH ([1]; pH 6.5 (summary Table 10)) | Strain-selective antibacterial activity ([1]; pH 7.0) | Strain-selective antibacterial activity at each pH ([1]; pH 7 (summary Table 10)) | MIC [2] [µg/mL] | MIC [3] [µg/mL] | MIC [4] [µg/mL] | MIC [5] [µg/mL] | MIC [6, 9] [µg/mL] | MIC [6, 10] [µg/mL] | MIC ([6]; pH 5.5) [µg/mL] | MIC ([6]; pH 6.5) [µg/mL] | MIC ([6]; pH 7.0) [µg/mL] | Strain-selective antibacterial activity [7] | MIC [8, 9] [µg/mL] | MIC [8, 12] [µg/mL] | other results
1 | CCCCCCCCCCCCCCCCC(=O)O [Heptadecanoic acid (C17:0), Heptadecanoic acid] | >64 | >64 | >130 | >130 | >140 | >140 | 72 | 72 | 125 (≈ 462 µM) | 250 (≈ 924 µM) | 62.5 (≈ 231 µM) | 62.5 (≈ 231 µM) | 7.81 (≈ 28.9 µM) | > 1000 | 15.6 (≈ 57.7 µM) | 31.3 (≈ 116 µM) | 62.5 (≈ 231 µM) | >11 | > 1000 | > 1000 | Strain-selective antibacterial activity over the tested pH range, in words [1]: maintained a high strain-selective antibacterial activity between pH 5.5 and pH 7; MIC against acne bacterium strain HL053PA1 strain (RT4) [6, 11]: >1000 µg/mL; MIC [8, 13]: > 1000 µg/mL; MIC ([8]; pH 6.5): > 1000 µg/mL; MIC ([8]; pH 7.0): 1000 µg/mL (≈ 3700 µM)
2 | CCCCCCCCCCCCCC(=O)O [Myristic acid (C14:0), Myristic acid] | >64 | >64 | 16 | 16 | >5.0 | >5.0 | 2.0 | 2.0 | 31.3 (≈ 137 µM) | 125 (≈ 547 µM) | 15.6 (≈ 68.3 µM) | 31.3 (≈ 137 µM) | 15.6 (≈ 68.3 µM) | 15.6 (≈ 68.3 µM) | 15.6 (≈ 68.3 µM) | 125 (≈ 547 µM) | 250 (≈ 1090 µM) | 8.5 | 250 (≈ 1090 µM) | > 1000 | Strain-selective antibacterial activity ([1]; pH 5.0): >48; Strain-selective antibacterial activity at each pH ([1]; pH 5 (summary Table 10)): >48; MIC [8, 13]: > 1000 µg/mL; MIC ([8]; pH 6.5): 250 µg/mL (≈ 1090 µM); MIC ([8]; pH 7.0): 500 µg/mL (≈ 2190 µM)
3 | CCCCCCCCCCCCCCC(=O)O [Pentadecanoic acid (C15:0), Pentadecanoic acid] | >260 | >260 | 130 | 130 | >96 | >96 | 260 | 260 | 3.9 (≈ 16.1 µM) | 3.9 (≈ 16.1 µM) | 3.9 (≈ 16.1 µM) | 3.9 (≈ 16.1 µM) | 1.95 (≈ 8.04 µM) | 7.81 (≈ 32.2 µM) | 3.9 (≈ 16.1 µM) | 3.9 (≈ 16.1 µM) | 3.9 (≈ 16.1 µM) | 64 | 250 (≈ 1030 µM) | > 1000 | Strain-selective antibacterial activity ([1]; pH 5.0): >96; Strain-selective antibacterial activity at each pH ([1]; pH 5 (summary Table 10)): >96; Strain-selective antibacterial activity over the tested pH range, in words [1]: maintained a high strain-selective antibacterial activity over the entire pH range tested (pH 5 to 7); MIC [8, 13]: > 1000 µg/mL; MIC ([8]; pH 6.5): 250 µg/mL (≈ 1030 µM); MIC ([8]; pH 7.0): 1000 µg/mL (≈ 4130 µM)
4 | CCCCCCCCCCCCCCCC(=O)O [Palmitic acid (C16:0), Palmitic acid] | >16 | >16 | >130 | >130 | >130 | >130 | 40 | 40 | 250 (≈ 975 µM) | 500 (≈ 1950 µM) | 62.5 (≈ 244 µM) | 62.5 (≈ 244 µM) | 7.81 (≈ 30.5 µM) | > 1000 | 62.5 (≈ 244 µM) | 125 (≈ 487 µM) | 62.5 (≈ 244 µM) | >9.5 | > 1000 | > 1000 | MIC against acne bacterium strain HL053PA1 strain (RT4) [6, 11]: >1000 µg/mL; MIC [8, 13]: > 1000 µg/mL; MIC ([8]; pH 6.5): > 1000 µg/mL; MIC ([8]; pH 7.0): 1000 µg/mL (≈ 3900 µM)
